The experiment has as its target JNK3 (Homo sapiens (Human), UniProt P53779). The experiment in a line: Measurement of JNK3 enzyme activity (33P-ATP filter-binding). It is filed as biochemical. Particulars: human JNK3, ATP 10 μM, ATF2 3 μM. As for the experimental part: The changes in JNK3 enzyme activity resulting from being treated with the inventive imidazole derivative (Formula 1) shown in a following Table 1 were identified through IC50.
First of all, after a substrate was inserted into a prepared base reaction buffer solution (20 mM Hepes ([…]), 10 mM MgCl2, 1 mM EGTA, 0.02% Brij35, 0.02 mg/ml BSA, 0.1 mM Na3VO4, 2 mM DTT, 1% DMSO), a human JNK3 enzyme was added into a prepared substrate solution and then mixed together. As the substrate, ATP (10 μM) and ATF2 (3 μM) were used, among which the ATP was also used as a common substrate. Then, compounds of Examples 1-18 and 25-36, which were dissolved in 100% DMSO, were inserted into an enzyme reaction solution, and then cultured at room temperature for 20 minutes. Then, ^33P-ATP was inserted into the above reaction mixture solution to initiate a reaction, then cultured at room temperature for 2 hours, and then an enzyme activity was detected by means of a filter-binding method.
Particularly, after each 25 μl of the resulting solution was slowly spotted on P81 paper, it was inserted into a scintillation vial, and washed with 0.75% phosphoric acid four times for 10 minutes each, and with acetone once for 5 minutes. 5 ml of scintillation cocktail was inserted into the above scintillation vial and a resulting signal was read by means of a scintillation counter.
IC50 values of compounds of Examples 1-18 and 25-36 with regard to JNK3 enzyme activity were shown in a following Table 2.

Each structure is given as a SMILES string. Bounds are passed on as bounds.

By IC50 is commonly meant the concentration at which inhibition is half-maximal. Read a low IC50 as greater potency.

JNK3, sequence (P53779 whole entry): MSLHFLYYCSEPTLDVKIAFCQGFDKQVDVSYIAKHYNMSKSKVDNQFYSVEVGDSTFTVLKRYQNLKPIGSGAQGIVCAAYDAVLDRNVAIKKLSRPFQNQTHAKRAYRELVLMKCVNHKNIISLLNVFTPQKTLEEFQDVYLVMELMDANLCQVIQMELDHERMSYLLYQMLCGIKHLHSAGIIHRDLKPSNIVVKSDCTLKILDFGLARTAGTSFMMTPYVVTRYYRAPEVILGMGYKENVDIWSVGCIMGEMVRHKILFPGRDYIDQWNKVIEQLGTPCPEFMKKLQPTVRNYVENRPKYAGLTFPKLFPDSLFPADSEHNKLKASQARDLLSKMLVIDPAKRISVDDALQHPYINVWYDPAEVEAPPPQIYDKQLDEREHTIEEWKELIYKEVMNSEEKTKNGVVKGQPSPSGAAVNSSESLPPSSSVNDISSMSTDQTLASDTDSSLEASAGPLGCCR

Regarding `N#CCc1cnc(-c2ccc3c(c2)OCO3)n1-c1ccnc(NC2CCOCC2)n1` [Example 1, 2-(2-(benzo[d][1,3]dioxol-5-yl)-1-(2-(tetrahydro-2H-pyran-4-ylamino)pyrimidine-4-yl)-1H-imidazole-5-yl)acetonitrile], the 50% inhibitory concentration (IC50) was in the range of 30 to 100 nM.

Regarding `N#CCc1cnc(-c2ccc3c(c2)OCCO3)n1-c1ccnc(NC2CCOCC2)n1` [Example 2, 2-(2-(2,3-dihydrobenzo[b][1,4]dioxin-6-yl)-1-(2-(tetrahydro-2H-pyran-4-ylamino)pyrimidine-4-yl)-1H-imidazole-5-yl)acetonitrile], the IC50 was more than 100 nM.

Molecule `N#CCc1cnc(-c2ccc3ccccc3n2)n1-c1ccnc(NC2CCOCC2)n1` [Example 3, 2-(2-(quinoline-2-yl)-1-(2-(tetrahydro-2H-pyran-4-ylamino)pyrimidine-4-yl)-1H-imidazole-5-yl) acetonitrile] gave an IC50 of 30 to 100 nM.

Consider `N#CCc1cnc(-c2ccc3ccccc3c2)n1-c1ccnc(NC2CCOCC2)n1` [Example 4, 2-(2-(naphthalene-2-yl)-1-(2-(tetrahydro-2H-pyran-4-ylamino)pyrimidine-4-yl)-1H-imidazole-5-yl)acetonitrile], for which the IC50 was less than 30 nM.

Regarding `N#CCc1cnc(-c2ccc(Cl)c(Cl)c2)n1-c1ccnc(NC2CCOCC2)n1` [Example 5, 2-(2-(3,4-dichlorophenyl)-1-(2-(tetrahydro-2H-pyran-4-ylamino)pyrimidine-4-yl)-1H-imidazole-5-yl)acetonitrile], the IC50 lay in the range of 30 to 100 nM.

Turning to `N#CCc1cnc(-c2ccc(F)c(C(F)(F)F)c2)n1-c1ccnc(NC2CCOCC2)n1` [Example 6, 2-(2-(4-fluoro-3-(trifluoromethyl)phenyl)-1-(2-(tetrahydro-2H-pyran-4-ylamino)pyrimidine-4-yl)-1H-imidazole-5-yl)acetonitrile], the half-inhibitory concentration (IC50) is 30 to 100 nM.

`N#CCc1cnc(-c2ccc3c(c2)OCO3)n1-c1ccnc(NC2CCCCC2)n1` [Example 7, 2-(2-(benzo[d][1,3]dioxol-5-yl)-1-(2-(cyclohexylamino)pyrimidine-4-yl)-1H-imidazole-5-yl)acetonitrile] came in with a half-maximal inhibitory concentration (IC50) of more than 100 nM.

The molecule `N#CCc1cnc(-c2ccc3c(c2)OCCO3)n1-c1ccnc(NC2CCCCC2)n1` [Example 8, 2-(1-(2-(cyclohexylamino)pyrimidine-4-yl)-2-(2,3-dihydrobenzo[b][1,4]dioxin-6-yl)-1H-imidazole-5-yl)acetonitrile] registered an IC50 of more than 100 nM.

With `N#CCc1cnc(-c2ccc3ccccc3n2)n1-c1ccnc(NC2CCCCC2)n1` [Example 9, 2-(1-(2-(cyclohexylamino)pyrimidine-4-yl)-2-(quinoline-2-yl)-1H-imidazole-5-yl)acetonitrile], the IC50 was more than 100 nM.

For the molecule `N#CCc1cnc(-c2ccc3ccccc3c2)n1-c1ccnc(NC2CCCCC2)n1` [Example 10, 2-(1-(2-(cyclohexylamino)pyrimidine-4-yl)-2-(naphthalene-2-yl)-1H-imidazole-5-yl)acetonitrile], the IC50 is 30 to 100 nM.

As to `N#CCc1cnc(-c2ccc(Cl)c(Cl)c2)n1-c1ccnc(NC2CCCCC2)n1` [Example 11, 2-(1-(2-(cyclohexylamino)pyrimidine-4-yl)-2-(3,4-dichlorophenphenyl)-1H-imidazole-5-yl)acetonitrile], the IC50 is 30 to 100 nM.

For `N#CCc1cnc(-c2ccc(F)c(C(F)(F)F)c2)n1-c1ccnc(NC2CCCCC2)n1` [Example 12, 2-(1-(2-(cyclohexylamino)pyrimidine-4-yl)-2-(4-fluoro-3-(trifluoromethyl)phenyl)-1H-imidazole-5-yl)acetonitrile], the half-inhibitory concentration (IC50) is more than 100 nM.

As for `CC(O)CNc1nccc(-n2c(CC#N)cnc2-c2ccc3c(c2)OCO3)n1` (stereo not drawn) [Example 13, 2-(2-(benzo[d][1,3]dioxol-5-yl)-1-(2-(2-hydroxypropylamino)pyrimidine-4-yl)-1H-imidazole-5-yl)acetonitrile], the half-inhibitory concentration (IC50) fell in the range of 30 to 100 nM.

`CC(O)CNc1nccc(-n2c(CC#N)cnc2-c2ccc3c(c2)OCCO3)n1` (stereo not drawn) [Example 14, 2-(2-(2,3-dihydrobenzo[b][1,4]dioxin-6-yl)-1-(2-(2-hydroxypropylamino)pyrimidine-4-yl)-1H-imidazole-5-yl)acetonitrile] displayed a concentration for half-maximal inhibition (IC50) of 30 to 100 nM.

On to `CC(O)CNc1nccc(-n2c(CC#N)cnc2-c2ccc3ccccc3n2)n1` (stereo not drawn) [Example 15, 2-(1-(2-(2-hydroxypropylamino)pyrimidine-4-yl)-2-(quinoline-2-yl)-1H-imidazole-5-yl)acetonitrile], for which the half-inhibitory concentration (IC50) was in the range of 30 to 100 nM.

The molecule `CC(O)CNc1nccc(-n2c(CC#N)cnc2-c2ccc3ccccc3c2)n1` (stereo not drawn) [Example 16, 2-(1-(2-(2-hydroxypropylamino)pyrimidine-4-yl)-2-(naphthalene-2-yl)-1H-imidazole-5-yl)acetonitrile] yielded a half-inhibitory concentration (IC50) of 30 to 100 nM.

For the molecule `CC(O)CNc1nccc(-n2c(CC#N)cnc2-c2ccc(Cl)c(Cl)c2)n1` (stereo not drawn) [Example 17, 2-(2-(3,4-dichlorophenyl)-1-(2-(2-hydroxypropylamino)pyrimidine-4-yl)-1H-imidazole-5-yl)acetonitrile], the half-maximal inhibitory concentration (IC50) lay in the range of 30 to 100 nM.

The molecule `CC(O)CNc1nccc(-n2c(CC#N)cnc2-c2ccc(F)c(C(F)(F)F)c2)n1` (stereo not drawn) [Example 18, 2-(2-(4-fluoro-3-(trifluoromethyl)phenyl)-1-(2-(2-hydroxypropylamino)pyrimidine-4-yl)-1H-imidazole-5-yl)acetonitrile] had a 50% inhibitory concentration (IC50) of 30 to 100 nM.

In turn, `N#CCc1cnc(-c2ccc3c(c2)OCO3)n1-c1ccnc(NC2CCCNC2)n1` (stereo not drawn) [Example 25, 2-(2-(benzo[d][1,3]dioxol-5-yl)-1-(2-(piperidine-3-ylamino)pyrimidine-4-yl)-1H-imidazole-5-yl) acetonitrile] came in with a half-maximal inhibitory concentration (IC50) of more than 100 nM.

Molecule `N#CCc1cnc(-c2ccc3c(c2)OCCO3)n1-c1ccnc(NC2CCCNC2)n1` (stereo not drawn) [Example 26, 2-(2-(2,3-dihydrobenzo[b][1,4]dioxin-6-yl)-1-(2-(piperidine-3-ylamino)pyrimidine-4-yl)-1H-imidazole-5-yl)acetonitrile] registered a concentration for half-maximal inhibition (IC50) of 30 to 100 nM.

On to `N#CCc1cnc(-c2ccc3ccccc3n2)n1-c1ccnc(NC2CCCNC2)n1` (stereo not drawn) [Example 27, 2-(1-(2-(piperidine-3-ylamino)pyrimidine-4-yl)-2-(quinoline-2-yl)-1H-imidazole-5-yl)acetonitrile], for which the IC50 fell in the range of 30 to 100 nM.

`N#CCc1cnc(-c2ccc3ccccc3c2)n1-c1ccnc(NC2CCCNC2)n1` (stereo not drawn) [Example 28, 2-(2-(naphthalene-2-yl)-1-(2-(piperidine-3-ylamino)pyrimidine-4-yl)-1H-imidazole-5-yl)acetonitrile]: the half-inhibitory concentration (IC50) was less than 30 nM.

In the case of `N#CCc1cnc(-c2ccc(Cl)c(Cl)c2)n1-c1ccnc(NC2CCCNC2)n1` (stereo not drawn) [Example 29, 2-(2-(3,4-dichlorophenyl)-1-(2-(piperidine-3-ylamino)pyrimidine-4-yl)-1H-imidazole-5-yl)acetonitrile], the concentration for half-maximal inhibition (IC50) fell in the range of 30 to 100 nM.

Regarding `N#CCc1cnc(-c2ccc(F)c(C(F)(F)F)c2)n1-c1ccnc(NC2CCCNC2)n1` (stereo not drawn) [Example 30, 2-(2-(4-fluoro-3-(trifluoromethyl)phenyl)-1-(2-(piperidine-3-ylamino)pyrimidine-4-yl)-1H-imidazole-5-yl)acetonitrile], the IC50 was in the range of 30 to 100 nM.

Molecule `N#CCc1cnc(-c2ccc3c(c2)OCO3)n1-c1ccnc(NC2CCCN(C(=O)C3CC3)C2)n1` (stereo not drawn) [Example 31, 2-(2-(benzo[d][1,3]dioxol-5-yl)-1-(2-(1-(cyclopropanecarbonyl)piperidine-3-ylamino)pyrimidine-4-yl)-1H-imidazole-5-yl)acetonitrile] yielded an IC50 of 30 to 100 nM.

Turning to `N#CCc1cnc(-c2ccc3c(c2)OCCO3)n1-c1ccnc(NC2CCCN(C(=O)C3CC3)C2)n1` (stereo not drawn) [Example 32, 2-(1-(2-(1-(cyclopropanecarbonyl)piperidine-3-ylamino)pyrimidine-4-yl)-2-(2,3-dihydrobenzo[b][1,4]dioxin-6-yl)-1H-imidazole-5-yl)acetonitrile], the IC50 lay within 30 to 100 nM.

In turn, `N#CCc1cnc(-c2ccc3ccccc3n2)n1-c1ccnc(NC2CCCN(C(=O)C3CC3)C2)n1` (stereo not drawn) [Example 33, 2-(1-(2-(1-(cyclopropanecarbonyl)piperidine-3-ylamino)pyrimidine-4-yl)-2-(quinoline-2-yl)-1H-imidazole-5-yl)acetonitrile] gave a half-inhibitory concentration (IC50) of less than 30 nM.

For `N#CCc1cnc(-c2ccc(Cl)c(Cl)c2)n1-c1ccnc(NC2CCCN(C(=O)C3CC3)C2)n1` (stereo not drawn) [Example 35, 2-(1-(2-(1-(cyclopropanecarbonyl)piperidine-3-ylamino)pyrimidine-4-yl)-2-(3,4-dichlorophenyl)-1H-imidazole-5-yl)acetonitrile], the half-maximal inhibitory concentration (IC50) fell in the range of 30 to 100 nM.

On to `N#CCc1cnc(-c2ccc(F)c(C(F)(F)F)c2)n1-c1ccnc(NC2CCCN(C(=O)C3CC3)C2)n1` (stereo not drawn) [Example 36, 2-(1-(2-(1-(cyclopropanecarbonyl)piperidine-3-ylamino)pyrimidine-4-yl)-2-(4-fluoro-3-(trifluoromethyl)phenyl)-1H-imidazole-5-yl)acetonitrile], for which the IC50 fell in the range of 30 to 100 nM.

`N#CCc1cnc(-c2ccc3occc3c2)n1-c1ccnc(NC2CCCN(C(=O)C3CC3)C2)n1` (stereo not drawn) [Example 37] displayed an IC50 of less than 30 nM.

These data come from patent publication US10301291B2, “Imidazole derivative having JNK inhibitory activity and use thereof” (SAMJIN PHARMACEUTICAL CO., LTD., priority 2016, dated 2019).
